This note sets out measurements from the supplement of paper PMC10883282.

± gives the standard deviation of the averaged measurements.

This test has as its system SYO-1. The experiment in a line: relative viability vs DMSO control (72 h) (fraction); higher = more viable cells. The method in brief:
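Sarcoma cell lines were plated in 384 wells to reach 80–90% confluence, treated after 24 h with 2.5 µl of serially diluted compound and held 72 h at 37 °C, 5% CO2. Relative viability was taken as percent growth from ATPLite readings, averaged over up to triplicate wells. The values were rescaled so that 1 marks full and 0 marks none.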

For `C=CC(=O)Nc1cccc(Oc2nc(Nc3ccc(N4CCN(C)CC4)cc3)nc3ccsc23)c1` [Olmutinib], the relative viability runs as follows: (0.00017 µM) 0.957 ± 0.02; (0.00051 µM) 0.985 ± 0.043; (0.00152 µM) 0.955 ± 0.018; (0.00457 µM) 0.952 ± 0.01; (0.01372 µM) 0.953 ± 0.021; (0.04115 µM) 0.9712 ± 0.0081. Besides, the relative viability is 0.972 ± 0.037 (0.1235 µM); 0.933 ± 0.017 (0.3704 µM); 0.908 ± 0.045 (1.111 µM); 0.698 ± 0.044 (3.333 µM); -0.00933 ± 0.0049 (10 µM).
`CNC(=O)c1cc(Oc2ccc(NC(=O)Nc3ccc(Cl)c(C(F)(F)F)c3)c(F)c2)ccn1` [Regorafenib] gave a relative viability (0.00017 µM) of 1.02 ± 0.039; a relative viability (0.00051 µM) of 1.022 ± 0.0037; a relative viability (0.00152 µM) of 1.04 ± 0.05; a relative viability (0.00457 µM) of 1.01 ± 0.035; a relative viability (0.01372 µM) of 1.03 ± 0.02; a relative viability (0.04115 µM) of 0.999 ± 0.05. Besides, the relative viability stood at 0.954 ± 0.065 (0.1235 µM); 0.755 ± 0.038 (0.3704 µM); 0.572 ± 0.022 (1.111 µM); 0.476 ± 0.016 (3.333 µM); 0.217 ± 0.016 (10 µM).
`COc1cc2c(cc1O)CCN[C@]21CS[C@@H]2c3c(OC(C)=O)c(C)c4c(c3[C@H](COC1=O)N1[C@@H]2[C@H]2c3c(cc(C)c(OC)c3O)C[C@@H]([C@@H]1O)N2C)OCO4` [Trabectedin]: the relative viability reads like this: (2 pM) 0.489 ± 0.027; (5 pM) 0.422 ± 0.039; (15 pM) 0.299 ± 0.027; (50 pM) 0.194 ± 0.13; (0.00014 µM) 0.0855 ± 0.18; (0.00041 µM) 0.0855 ± 0.18. The relative viability runs as follows: (0.0012 µM) 0.26 ± 0.031; (0.0037 µM) 0.315 ± 0.0091; (0.011 µM) 0.312 ± 0.02; (200 fM) 0.4804 ± 0.002; (600 fM) 0.512 ± 0.024.
